Measured values taken from US20180188224A1, “METHOD FOR CONSTRUCTING A SENSORY SPACE” (CENTRE SCIENTIFIQUE ET TECHNIQUE DU BATIMENT (CSTB), priority 2015, published 2018).
Values joined by “and” are separate entries in the source; they are usually repeats but may differ in a detail not shown here. Identical values can stand only once.

Tested on: four non-smoking volunteers (2 men and 2 women)
Test: Taste identification questionnaire, trained panel (count of 6 repetitions per subject in which the stimulus was given each taste label; level of recognition %)
Assay type: in vivo, human
Procedure: In this test, four non-smoking volunteers (2 men and 2 women) were chosen from 12 people for their performance in taste recognition. Their mean age was 32 years, ranging from 24 to 40 years. […] These four people were trained for several months to recognize and detect the four basic tastes, and also regarding the procedures of sensory and physiological analysis.
The four basic tastes (sweet, salty, sour and bitter) were used. The solutions were prepared with citric acid for the sour taste, caffeine for the bitter taste, sodium chloride for the salty taste and sucrose for the sweet taste (all purchased from Sigma Aldrich, France) in Evian water. Evian water was also used as control and blank. Each taste was prepared with the four concentrations mentioned in table 1.
The amount of solution to be tested was standardized at 10 ml. In order to impregnate the whole of the oral cavity, the subjects kept the solution in their mouth for 5 s before swallowing it.
The sessions were individual and the subjects were asked not to eat or drink anything for at least 1 h before the test. They arrived 15 min before the start of the session in order to acclimatize to the environmental conditions, in particular the temperature of the room (kept constant at 23° C.) and to be resting seated on a comfortable chair. The 16 solutions for testing and two additional samples of water containing solely Evian water, added to the references, were presented monadically following a test order determined from a “balanced incomplete block design”. During a session, 9 samples out of 18 were presented to minimize sensory fatigue. In addition, a sample of Evian was always tested as a “blank” sample in order to avoid the first-order effect (Lawless, H. T. & Heymann, H., 2010, Sensory evaluation of food: Principles and practices. Springer, New York) and was excluded from the analysis. A light signal was sent to give the instruction to test the sample. When the disturbance to the nervous system returned to its baseline level (after approximately 1 min), a second light signal indicated to the subjects that they should complete a questionnaire regarding the stimulus tested previously. The first part of the questionnaire was linked to the identification of the taste (i.e. determining the quality of the taste); the subjects had to choose between five labels: sweet, salty, sour, bitter or neutral. They then had to assign a taste intensity score on an 11-point scale (from 0 “not intense” (i.e. taste of Evian only) to 10 “very intense”) and finally to give a hedonic score on an 11-point scale (from 0 “very unpleasant” to 10 “very pleasant”, 5 being “neutral”).
This procedure was repeated for each of the 9 stimuli. A session lasted approximately 45 min including a debriefing at the end of the test to ensure understanding of the sense of the signal variations. The experiment was repeated 12 times per subject, meaning that the data are composed of 6 data sets per subject and per product and 12 data sets for the Evian product per subject. Thus, the database consists of 432 samples.

## O=C(O)CC(O)(CC(=O)O)C(=O)O [Citric acid, citric acid]
Subject 1, dilution 1
  Individual recognition score: Bitter: 1
  Individual recognition score: Neutral: 3
  Individual recognition score: Salty: 0
  Individual recognition score: Sour: 1
  Individual recognition score: Sweet: 1
Subject 1, dilution 2
  Individual recognition score: Bitter: 1
  Individual recognition score: Neutral: 4
  Individual recognition score: Salty: 0
  Individual recognition score: Sour: 1
  Individual recognition score: Sweet: 0
Subject 1, dilution 3
  Individual recognition score: Bitter: 0
  Individual recognition score: Neutral: 0
  Individual recognition score: Salty: 0
  Individual recognition score: Sour: 6
  Individual recognition score: Sweet: 0
Subject 1, dilution 4
  Individual recognition score: Bitter: 0
  Individual recognition score: Neutral: 0
  Individual recognition score: Salty: 0
  Individual recognition score: Sour: 6
  Individual recognition score: Sweet: 0
Subject 2, dilution 1
  Individual recognition score: Bitter: 0
  Individual recognition score: Neutral: 5
  Individual recognition score: Salty: 0
  Individual recognition score: Sour: 0
  Individual recognition score: Sweet: 1
Subject 2, dilution 2
  Individual recognition score: Bitter: 0
  Individual recognition score: Neutral: 3
  Individual recognition score: Salty: 0
  Individual recognition score: Sour: 2
  Individual recognition score: Sweet: 1
Subject 2, dilution 3
  Individual recognition score: Bitter: 0
  Individual recognition score: Neutral: 0
  Individual recognition score: Salty: 0
  Individual recognition score: Sour: 6
  Individual recognition score: Sweet: 0
Subject 2, dilution 4
  Individual recognition score: Bitter: 0
  Individual recognition score: Neutral: 0
  Individual recognition score: Salty: 0
  Individual recognition score: Sour: 6
  Individual recognition score: Sweet: 0
Subject 3, dilution 1
  Individual recognition score: Bitter: 2
  Individual recognition score: Neutral: 3
  Individual recognition score: Salty: 0
  Individual recognition score: Sour: 1
  Individual recognition score: Sweet: 0
Subject 3, dilution 2
  Individual recognition score: Bitter: 4
  Individual recognition score: Neutral: 1
  Individual recognition score: Salty: 0
  Individual recognition score: Sour: 1
  Individual recognition score: Sweet: 0
Subject 3, dilution 3
  Individual recognition score: Bitter: 0
  Individual recognition score: Neutral: 0
  Individual recognition score: Salty: 0
  Individual recognition score: Sour: 6
  Individual recognition score: Sweet: 0
Subject 3, dilution 4
  Individual recognition score: Bitter: 0
  Individual recognition score: Neutral: 0
  Individual recognition score: Salty: 0
  Individual recognition score: Sour: 6
  Individual recognition score: Sweet: 0
Subject 4, dilution 1
  Individual recognition score: Bitter: 3
  Individual recognition score: Neutral: 2
  Individual recognition score: Salty: 0
  Individual recognition score: Sour: 1
  Individual recognition score: Sweet: 0
Subject 4, dilution 2
  Individual recognition score: Bitter: 1
  Individual recognition score: Neutral: 1
  Individual recognition score: Salty: 0
  Individual recognition score: Sour: 4
  Individual recognition score: Sweet: 0
Subject 4, dilution 3
  Individual recognition score: Bitter: 0
  Individual recognition score: Neutral: 0
  Individual recognition score: Salty: 0
  Individual recognition score: Sour: 6
  Individual recognition score: Sweet: 0
Subject 4, dilution 4
  Individual recognition score: Bitter: 0
  Individual recognition score: Neutral: 0
  Individual recognition score: Salty: 0
  Individual recognition score: Sour: 6
  Individual recognition score: Sweet: 0
Four subjects, dilution 1
  Level of Recognition %: Bitter: 25%
  Level of Recognition %: Neutral: 54%
  Level of Recognition %: Salty: 0%
  Level of Recognition %: Sour: 13%
  Level of Recognition %: Sweet: 8%
Four subjects, dilution 2
  Level of Recognition %: Bitter: 25%
  Level of Recognition %: Neutral: 38%
  Level of Recognition %: Salty: 0%
  Level of Recognition %: Sour: 33%
  Level of Recognition %: Sweet: 4%
Four subjects, dilution 3
  Level of Recognition %: Bitter: 0%
  Level of Recognition %: Neutral: 0%
  Level of Recognition %: Salty: 0%
  Level of Recognition %: Sour: 100%
  Level of Recognition %: Sweet: 0%
Four subjects, dilution 4
  Level of Recognition %: Bitter: 0%
  Level of Recognition %: Neutral: 0%
  Level of Recognition %: Salty: 0%
  Level of Recognition %: Sour: 100%
  Level of Recognition %: Sweet: 0%

## [Cl-].[Na+] [NaCl, sodium chloride]
Subject 1, dilution 1
  Individual recognition score: Neutral: 0
  Individual recognition score: Salty: 6
  Individual recognition score: Sour: 0
  Individual recognition score: Sweet: 0
Subject 1, dilution 2
  Individual recognition score: Neutral: 0
  Individual recognition score: Salty: 6
  Individual recognition score: Sour: 0
  Individual recognition score: Sweet: 0
Subject 1, dilution 3
  Individual recognition score: Neutral: 0
  Individual recognition score: Salty: 6
  Individual recognition score: Sour: 0
  Individual recognition score: Sweet: 0
Subject 1, dilution 4
  Individual recognition score: Neutral: 0
  Individual recognition score: Salty: 6
  Individual recognition score: Sour: 0
  Individual recognition score: Sweet: 0
Subject 2, dilution 1
  Individual recognition score: Neutral: 0
  Individual recognition score: Salty: 6
  Individual recognition score: Sour: 0
  Individual recognition score: Sweet: 0
Subject 2, dilution 2
  Individual recognition score: Neutral: 0
  Individual recognition score: Salty: 6
  Individual recognition score: Sour: 0
  Individual recognition score: Sweet: 0
Subject 2, dilution 3
  Individual recognition score: Neutral: 0
  Individual recognition score: Salty: 6
  Individual recognition score: Sour: 0
  Individual recognition score: Sweet: 0
Subject 2, dilution 4
  Individual recognition score: Neutral: 0
  Individual recognition score: Salty: 6
  Individual recognition score: Sour: 0
  Individual recognition score: Sweet: 0
Subject 3, dilution 1
  Individual recognition score: Neutral: 0
  Individual recognition score: Salty: 6
  Individual recognition score: Sour: 0
  Individual recognition score: Sweet: 0
Subject 3, dilution 2
  Individual recognition score: Neutral: 0
  Individual recognition score: Salty: 6
  Individual recognition score: Sour: 0
  Individual recognition score: Sweet: 0
Subject 3, dilution 3
  Individual recognition score: Neutral: 0
  Individual recognition score: Salty: 6
  Individual recognition score: Sour: 0
  Individual recognition score: Sweet: 0
Subject 3, dilution 4
  Individual recognition score: Neutral: 0
  Individual recognition score: Salty: 6
  Individual recognition score: Sour: 0
  Individual recognition score: Sweet: 0
Subject 4, dilution 1
  Individual recognition score: Neutral: 0
  Individual recognition score: Salty: 5
  Individual recognition score: Sour: 0
  Individual recognition score: Sweet: 0
Subject 4, dilution 2
  Individual recognition score: Neutral: 0
  Individual recognition score: Salty: 6
  Individual recognition score: Sour: 0
  Individual recognition score: Sweet: 0
Subject 4, dilution 3
  Individual recognition score: Neutral: 0
  Individual recognition score: Salty: 6
  Individual recognition score: Sour: 0
  Individual recognition score: Sweet: 0
Subject 4, dilution 4
  Individual recognition score: Neutral: 0
  Individual recognition score: Salty: 6
  Individual recognition score: Sour: 0
  Individual recognition score: Sweet: 0
Four subjects, dilution 1
  Level of Recognition %: Neutral: 0%
  Level of Recognition %: Salty: 96%
  Level of Recognition %: Sour: 0%
  Level of Recognition %: Sweet: 0%
Four subjects, dilution 2
  Level of Recognition %: Neutral: 0%
  Level of Recognition %: Salty: 100%
  Level of Recognition %: Sour: 0%
  Level of Recognition %: Sweet: 0%
Four subjects, dilution 3
  Level of Recognition %: Neutral: 0%
  Level of Recognition %: Salty: 100%
  Level of Recognition %: Sour: 0%
  Level of Recognition %: Sweet: 0%
Four subjects, dilution 4
  Level of Recognition %: Neutral: 0%
  Level of Recognition %: Salty: 100%
  Level of Recognition %: Sour: 0%
  Level of Recognition %: Sweet: 0%
human, in vivo
  Individual recognition score: Bitter: 0 (15×) and 1
  Level of Recognition %: Bitter: 4% and 0%
